Results from patent US20140228425A1, “INHIBITOR FOR CORNEAL EPITHELIAL CELL DEATH, INHIBITOR CHARACTERIZED BY COMBINING HYALURONIC ACID AND FLAVIN ADENINE DINUCLEOTIDE” (SANTEN PHARMACEUTICAL CO., LTD., priority 2011, published 2014).
Where a name gives a salt, the structure may show the parent alone.

What was measured:
[1] = Patent Document 1; cited from earlier work
[2] = system: SV40 immortalized human corneal epithelial cells (HCE-T); test: Pharmacological Test 2: treatment before UV-B irradiation (120 mJ/cm^2), cell death inhibition ratio; assay type: cell-based; conditions: for Cell death inhibition ratio: average N=3
Experimental: A test similar to Pharmacological test 1 was conducted with the irradiation condition of UV-B varied.
After conducting operations similar to those in Pharmacological test 1, the 10% FBS-containing DMEM/F-12 culture medium was replaced by PBS containing 0.05% (w/v) flavin adenine dinucleotide disodium salt, PBS containing 0.05% (w/v) sodium hyaluronate, PBS containing 0.05% (w/v) sodium hyaluronate and 0.05% (w/v) flavin adenine dinucleotide disodium salt, PBS containing 0.3% (w/v) sodium hyaluronate, PBS containing 0.3% (w/v) sodium hyaluronate and 0.05% (w/v) flavin adenine dinucleotide disodium salt, or PBS not containing a test substance (hereinafter, referred to as “0.05% FAD group”, “0.05% HA group”, “0.05% HA/0.05% FAD group”, “0.3% HA group”, “0.3% HA/0.05% FAD group” or “base group”, respectively). Then, corneal epithelial cells were irradiated with UV-B (120 mJ/cm^2) for about 2 minutes, and again operations similar to those in Pharmacological test 1 were conducted. Then, according to the expression 1, the viability was calculated, and further, according to the following expression 2, the cell death inhibition ratio of each group was calculated.
Cell death inhibition ratio (%)=Viability of each group−Viability of base group [Expression 2]

[3] = system: SV40 immortalized human corneal epithelial cells; test: Pharmacological Test 3: treatment after UV-B irradiation (80 mJ/cm^2), viability of corneal epithelial cells; assay type: cell-based; conditions: treated 60 minutes after UV-B irradiation (80 mJ/cm^2, about 1 minute); 0.1% (w/v) sodium hyaluronate, 0.05% (w/v) flavin adenine dinucleotide disodium salt, or both; FIG. 2
Experimental: Whether or not the decline of the number of living cells by ultraviolet irradiation is inhibited when corneal epithelial cells are treated with the present agent after ultraviolet (UV-B) irradiation was evaluated.
SV40 immortalized human corneal epithelial cells were inoculated in a 96-well plate (1×10^4 cells/well), and cultured in a 10% FBS-containing DMEM/F-12 culture medium for a day. On the next day, corneal epithelial cells were irradiated with UV-B (80 mJ/cm^2) for about 1 minute. Then the 10% FBS-containing DMEM/F-12 culture medium was replaced by PBS containing 0.1% (w/v) sodium hyaluronate, PBS containing 0.05% (w/v) flavin adenine dinucleotide disodium salt, PBS containing 0.1% (w/v) sodium hyaluronate and 0.05% (w/v) flavin adenine dinucleotide disodium salt, or PBS not containing a test substance, and then cultured at 37° C. for 60 minutes (hereinafter, referred to as “0.1% HA group”, “0.05% FAD group”, “0.1% HA/0.05% FAD group” or “base group”, respectively). Then, after replacing the culture medium of each group by a 10% FBS-containing DMEM/F-12 culture medium, the cells were cultured at 37° C. for 24 hours, and then the number of living cells was determined by using Cell Titer 96 (registered trade name) AQueous One Solution Cell Proliferation Assay, and the viability was calculated according to the following expression 3. […]

[4] = system: SV40 immortalized human corneal epithelial cells; test: Pharmacological Test 4: treatment before exposure to dryness, viability of corneal epithelial cells; assay type: cell-based; conditions: treated 60 minutes before exposure to dryness for 15 minutes; 0.1% HA, 0.05% FAD or 0.1% HA/0.05% FAD in D-MEM/F12; FIG. 3
Experimental: Whether or not the decline of the number of living cells by dryness is inhibited when corneal epithelial cells are treated with the present agent before exposure to dryness was evaluated.
SV40 immortalized human corneal epithelial cells were inoculated in a 96-well plate (1×10^4 cells/well), and cultured in a 10% FBS-containing DMEM/F-12 culture medium for a day. On the next day, the culture medium was replaced by a D-MEM/F12 culture medium containing 0.1% (w/v) sodium hyaluronate, a D-MEM/F12 culture medium containing 0.05% (w/v) flavin adenine dinucleotide disodium salt, a D-MEM/F12 culture medium containing 0.1% (w/v) sodium hyaluronate and 0.05% (w/v) flavin adenine dinucleotide disodium salt, or a D-MEM/F12 culture medium not containing a test substance, and then cells were cultured at 37° C. for 60 minutes (hereinafter, referred to as “0.1% HA group”, “0.05% FAD group”, “0.1% HA/0.05% FAD group” or “base group”, respectively). After culturing, the culture medium of each group was removed, and then cells were exposed to dryness for 15 minutes. After exposure to dryness, the number of living cells was determined by using Cell Titer 96 (registered trade name) AQueous One Solution Cell Proliferation Assay, and the viability was calculated according to the following expression 4. […]

[5] = system: corneal epithelial cells; conditions: Non-Patent Document 1; cited from earlier work
[6] = system: corneal epithelial cells; conditions: Non-Patent Document 3; cited from earlier work
[7] = single substance 0.05% (w/v) in PBS before UV-B (120 mJ/cm^2, about 2 minutes)

Compound | Cell death inhibition ratio [2, 7] [%] | inhibition of corneal epithelial cell death (in words) [3] | action of inhibiting corneal epithelial cell death (in words) [4] | other results
Cc1cc2nc3c(=O)[nH]c(=O)nc-3n(C[C@H](O)[C@H](O)[C@H](O)COP(=O)(O)OP(=O)(O)OC[C@H]3O[C@@H](n4cnc5c(N)ncnc54)C(O)C3O)c2cc1C (stereo partly drawn) [FAD or the like, flavin adenine dinucleotide (FAD) or a salt thereof] | – | – | – | lacrimal secretagogue action [1]: has a lacrimal secretagogue action
Cc1cc2nc3c(=O)[nH]c(=O)nc-3n(C[C@H](O)[C@H](O)[C@H](O)COP(=O)([O-])OP(=O)([O-])OC[C@H]3O[C@@H](n4cnc5c(N)ncnc54)[C@H](O)[C@@H]3O)c2cc1C.[Na+].[Na+] [FAD, flavin adenine dinucleotide disodium salt] | 48.78 | little observed | the action was not observed | –
hyaluronic acid or a salt thereof [hyaluronic acid or the like] | – | – | – | Caspase-3/7 activation by UV-B irradiation [5]: inhibits; increase in production of active oxygen by corneal epithelial cells by UV-B irradiation [5]: inhibits; cell death of corneal epithelial cells induced by dryness [6]: does not inhibit
sodium hyaluronate [HA] | −0.17 | little observed | an action of inhibiting corneal epithelial cell death was observed | Cell death inhibition ratio ([2]; single substance 0.3% (w/v) in PBS before UV-B (120 mJ/cm^2, about 2 minutes)): 4.17%; inhibition of corneal epithelial cell death by UV-B irradiation (in words) ([2]; treatment before UV-B irradiation (120 mJ/cm^2, about 2 minutes)): little inhibit
